Experiments:
[1] = test system: rat; conditions: Prenatal developmental toxicity study, wistar, Oral, Gavage/Intubation, dose end: 15 GD
[2] = test system: rat; conditions: Subchronic oral toxicity in rodents, wistar, Feed, dose end: 90 day, group: systemic
[3] = test system: dog; conditions: Chronic toxicity, beagle, Oral, Feed, dose end: 12 month, group: systemic
[4] = test system: mouse; conditions: Carcinogenicity, b6c3f1, Oral, Feed, dose end: 2 year, group: systemic
[5] = test system: rat; conditions: Combined chronic toxicity/carcinogenicity; wistar; Oral; Feed; dose end: 2 year; group: systemic; systemic / clinical chemistry / alanine aminotransferase (alt/sgpt) / alanine aminotransferase (alt/sgpt) + systemic / clinical chemistry / …
[6] = test system: dog; conditions: Subchronic oral toxicity in nonrodent, beagle, [Not Specified], dose end: 4 week, group: systemic, systemic / clinical chemistry / alanine aminotransferase (alt/sgpt) / alanine aminotransferase (alt/sgpt) + systemic / clinical chemistry / …
[7] = test system: dog; conditions: Subchronic oral toxicity in nonrodent, beagle, Feed, dose end: 90 day, group: systemic
[8] = test system: rat; conditions: Subchronic oral toxicity in rodents, wistar, Feed, dose end: 91 day, group: systemic, systemic / clinical chemistry / alanine aminotransferase (alt/sgpt) / alanine aminotransferase (alt/sgpt) + systemic / clinical chemistry / …
[9] = test system: dog; conditions: Chronic toxicity; beagle; Oral; Feed; dose end: 52 week; group: systemic; systemic / clinical chemistry / cholesterol / cholesterol + systemic / clinical chemistry / creatinine / creatinine + systemic / clinical …
[10] = group: developmental, developmental / developmental malformation / bone / incomplete ossification + developmental / developmental malformation / bone / …
[11] = group: maternal, systemic / in life observation / body weight / body weight gain + systemic / in life observation / food consumption / food consumption + …
[12] = systemic / hematology / blood clotting / blood clotting - clotting time + systemic / organ weight / kidney / absolute + systemic / organ …
[13] = systemic / clinical chemistry / cholesterol / cholesterol + systemic / clinical chemistry / creatinine / creatinine + systemic / clinical …
[14] = systemic / pathology microscopic / pituitary gland / cyst
[15] = systemic / clinical chemistry / [other] / [other]
[16] = systemic / clinical chemistry / [other] / [other] + systemic / clinical chemistry / alanine aminotransferase (alt/sgpt) / alanine …

`Cc1cc(Cl)ccc1OCC(=O)O` [MCPA] gave an LEL [1, 10] of 120 mg/kg/day, an LOAEL [1, 10] of 120 mg/kg/day and an NEL [1, 10] of 60 mg/kg/day. The NOAEL [1, 10] was 60 mg/kg/day, the LEL [1, 11] was 120 mg/kg/day and the LOAEL [1, 11] was 120 mg/kg/day. It also gave an NEL [1, 11] of 60 mg/kg/day, an NOAEL [1, 11] of 60 mg/kg/day and an LOAEL [2, 12] of 32.6 mg/kg/day. It also gave an NEL [2, 12] of 3.6 mg/kg/day, an NOAEL [2, 12] of 10.9 mg/kg/day and an LEL ([2]; systemic / organ weight / kidney / absolute) of 10.9 mg/kg/day. It also gave an LOAEL [3, 13] of 1.02 mg/kg/day, an NOAEL [3, 13] of 0.21 mg/kg/day and an LEL [3, 14] of 0.2 mg/kg/day. The NEL [3, 14] was less than 0.2 mg/kg/day, the LEL ([4]; systemic / in life observation / body weight / body weight) was 15.7 mg/kg/day and the NEL ([4]; systemic / in life observation / body weight / body weight + systemic / pathology microscopic / kidney / casts protein + systemic / …) was 3.2 mg/kg/day. The LOAEL ([4]; systemic / pathology microscopic / kidney / hyperplasia) was 19.5 mg/kg/day, the NOAEL ([4]; systemic / pathology microscopic / kidney / hyperplasia + systemic / in life observation / body weight / body weight + systemic / organ …) was 3.9 mg/kg/day and the LEL [5] was 5.7 mg/kg/day. For the same compound, the LOAEL [5] was 5.7 mg/kg/day, the NEL [5] was 1.4 mg/kg/day and the NOAEL [5] was 1.4 mg/kg/day. It also gave an LEL [6] of 8 mg/kg/day, an LOAEL [6] of 8 mg/kg/day and an NEL [6] of less than 8 mg/kg/day. It also gave an NOAEL [6] of less than 8 mg/kg/day, an LEL [7, 15] of 3 mg/kg/day and an LOAEL [7, 15] of 3 mg/kg/day. The NEL [7, 16] was 1 mg/kg/day, the NOAEL [7, 16] was 1 mg/kg/day and the LEL [8] was 177 mg/kg/day. It also gave an LOAEL [8] of 177 mg/kg/day, an NEL [8] of 34 mg/kg/day and an NOAEL [8] of 34 mg/kg/day. The LEL [9] was 1.02 mg/kg/day, the LOAEL [9] was 1.02 mg/kg/day and the NEL [9] was 0.21 mg/kg/day. The NOAEL [9] was 0.21 mg/kg/day.
